± gives the expanded uncertainty stated by the source.

Experimental findings from the NIST ThermoML archive (doi:10.1021/je900370q) are described below.

The conditions of this series: Crystal; DTA.
`O=C(/C=C/c1ccc(-c2cccc([N+](=O)[O-])c2)o1)c1cccc([N+](=O)[O-])c1`: the Normal melting temperature was determined as 180.00 ± 1 °C. With `COc1ccc(C(=O)/C=C/c2ccc(-c3cccc([N+](=O)[O-])c3)o2)cc1`, the Normal melting temperature is 141.00 ± 1 °C. For `O=C(/C=C/c1ccc(-c2cccc([N+](=O)[O-])c2)o1)c1ccco1`, the Normal melting temperature was 178.00 ± 1 °C. Regarding `O=C(/C=C/c1ccc(-c2cccc([N+](=O)[O-])c2)o1)c1ccc(Cl)cc1`, the Normal melting temperature amounted to 170.00 ± 1 °C.

As to `Nc1ccc(C(=O)/C=C/c2ccc(-c3cccc([N+](=O)[O-])c3)o2)cc1`, the Normal melting temperature came out at 171.00 ± 1 °C. The figure for `O=C(/C=C/c1ccc(-c2cccc([N+](=O)[O-])c2)o1)c1ccc(O)cc1` is 152.00 ± 1 °C; for `O=C(/C=C/c1ccc(-c2cccc([N+](=O)[O-])c2)o1)c1ccccc1` [(E)-3-(5-(3-nitrophenyl)furan-2-yl)-1-phenylprop-2-en-1-one] it is 142.00 ± 1 °C; for `O=C(/C=C/c1ccc(-c2cccc([N+](=O)[O-])c2)o1)c1ccc(Br)cc1` it is 160.00 ± 1 °C. In the case of `O=C(/C=C/c1ccc(-c2cccc([N+](=O)[O-])c2)o1)c1cc2ccccc2oc1=O`, the Normal melting temperature was determined as 172.00 ± 1 °C.

Consider `O=C(/C=C/c1ccc(-c2cccc([N+](=O)[O-])c2)o1)c1ccc([N+](=O)[O-])cc1`, for which the Normal melting temperature was 218.00 ± 1 °C.
